Measurements from publication PMC3780361 (Bioorganic & medicinal chemistry, 2013).
Values after ≈ are worked out from the molar mass of the structure shown.

How the values were obtained:
M. tb H37Rv [1] = settings: secondary-linked 1 vs tertiary-linked 2; cited from earlier work
M. tb H37Rv [2] = assay: M. tb MIC determination by microbroth dilution; assay type: cell-based; settings: Mycobacterium tuberculosis, 168 h, read-out: M. tb MIC
recombinant human sEH = molecular target: T1, recombinant human sEH (Homo sapiens, UniProt P34913); assay: Human soluble epoxide hydrolase assay; assay type: biochemical
T1 sequence (P34913 1-555): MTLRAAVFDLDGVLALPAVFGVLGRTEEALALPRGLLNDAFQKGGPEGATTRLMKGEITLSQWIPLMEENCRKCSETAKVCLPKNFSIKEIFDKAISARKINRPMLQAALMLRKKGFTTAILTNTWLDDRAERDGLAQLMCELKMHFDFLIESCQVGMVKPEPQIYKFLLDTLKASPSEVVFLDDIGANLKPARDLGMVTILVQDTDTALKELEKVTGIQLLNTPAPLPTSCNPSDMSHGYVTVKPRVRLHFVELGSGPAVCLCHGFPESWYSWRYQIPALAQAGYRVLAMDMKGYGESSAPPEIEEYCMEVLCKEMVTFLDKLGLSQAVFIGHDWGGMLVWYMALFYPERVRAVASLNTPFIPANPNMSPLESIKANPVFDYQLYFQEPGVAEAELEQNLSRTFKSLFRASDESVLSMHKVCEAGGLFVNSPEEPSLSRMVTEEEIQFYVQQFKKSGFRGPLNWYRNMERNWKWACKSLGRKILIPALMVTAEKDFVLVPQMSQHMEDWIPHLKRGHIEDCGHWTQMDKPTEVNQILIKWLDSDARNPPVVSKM

physchem = settings: pH 7.4
in vitro = settings: monkey; for IC50 at 72 h: Cytotoxicity IC50
[3] = Cytotoxicity determination; settings: monkey, Cytotoxicity IC50, VERO cell line, MTT
[4] = Permeability determination; settings: PAMPA, pH 7.4

SMILES: O=C(Nc1ccc(F)c(F)c1F)NC1C2CC3CC(C2)CC1C3 (stereo not drawn) [Compound 1]
- Fold more potent than 2 (anti-TB activity) (M. tb H37Rv [1]): 40 fold

SMILES: Nc1ccc(S(=O)(=O)c2ccc(NC(=O)NC34CC5CC(CC(C5)C3)C4)cc2)cc1 [Compound 13, 1-(1-adamantyl)-3-(4-((4-aminophenyl)sulfonyl)phenyl)urea]
- MIC (M. tb H37Rv [2]): 6.25 µg/mL (≈ 14.7 µM)
- IC50 (recombinant human sEH): 0.7 nM
- solubility at 18 h (physchem): 0.9 ± 0.1 µg/mL (≈ 2.11 µM)
- selectivity ratio at 72 h (in vitro): 23
- IC50 at 72 h (in vitro): > 100 µg/mL

SMILES: Cc1cc(NC(=O)NC23CC4CC(CC(C4)C2)C3)no1 [Compound 23, 1-(1-adamantyl)-3-(5-methylisoxazol-3-yl)urea]
- solubility at 18 h (physchem): ~25 µg/mL (≈ 90.8 µM)

SMILES: Cc1nnc(NC(=O)NC23CC4CC(CC(C4)C2)C3)o1 [Compound 36, 1-(1-adamantyl)-3-(5-methyl-1,3,4-oxadiazol-2-yl)urea]
- solubility at 18 h (physchem): ~10 µg/mL (≈ 36.2 µM)

SMILES: CC(C)c1nnc(NC(=O)NC23CC4CC(CC(C4)C2)C3)o1 [Compound 37, 1-(1-adamantyl)-3-(5-isopropyl-1,3,4-oxadiazol-2-yl)urea]
- solubility at 18 h (physchem): ~10 µg/mL (≈ 32.9 µM)

SMILES: Cc1cc(NC(=O)NC2C3CC4CC(C3)CC2C4)no1 (stereo not drawn) [Compound 47, 1-(2-adamantyl)-3-(5-methylisoxazol-3-yl)urea]
- solubility at 18 h (physchem): ~25 µg/mL (≈ 90.8 µM)
- selectivity ratio at 72 h (in vitro): > 8
- IC50 at 72 h (in vitro): > 48 µg/mL

SMILES: O=C(Nc1nnc(C2CC2)o1)NC1C2CC3CC(C2)CC1C3 (stereo not drawn) [Compound 50, 1-(2-adamantyl)-3-(5-cyclopropyl-1,3,4-oxadiazol-2-yl)urea]
- IC50 at 72 h [3]: > 100 µg/mL

SMILES: CCn1nc(NC(=O)NC2C3CC4CC(C3)CC2C4)cc1C (stereo not drawn) [Compound 52, 1-(2-adamantyl)-3-(1-ethyl-5-methylpyrazol-3-yl)urea]
- IC50 at 72 h [3]: > 100 µg/mL

SMILES: CCCSc1ccc2nc(NC(=O)OC)[nH]c2c1 [albendazole]
- Papp at 0.5 hr, 50 µM [4]: ~441 ×10⁻⁶ cm/s
